Laboratory results taken from patent US9187464B2, “TRPV4 antagonists” (GlaxoSmithKline Intellectual Property (No. 2) Limited, priority 2011, dated 2015).
Where a name gives a salt, the structure may show the parent alone.

Molecular target: T1, human TRPV4 (Homo sapiens, UniProt Q9HBA0)
T1 construct: expressed in transfected cells; host or cells: HEK-293-MSR-II cells transduced with 1% BacMam virus
Experiment: Ligand-gated assay (Fluo4 calcium, FLIPR; inhibition of agonist-induced activation)
Type: cell-based
Settings: HEK-293-MSR-II cells transduced with BacMam human TRPV4; agonist at EC80
Method: TRP channel activation/opening results in an influx of divalent and monovalent cations including calcium. The resulting changes in intracellular calcium were monitored using a calcium selective fluorescent dye Fluo4 (MDS Analytical Technologies). Dye loaded cells were initially exposed to test compound to verify a lack of agonist activity. Cells were subsequently activated by addition of an agonist and inhibition of the agonist-induced activation was recorded. Human embryonic kidney 293 cells stably expressing the macrophage scavenger receptor class II (HEK-293-MSR-II) and transduced with 1% BacMam (J. P. Condreay, S. M. Witherspoon, W. C. Clay and T. A. Kost, Proc Natl Acad Sci 96 (1999), pp. 127-132) virus expressing the human TRPV4 gene were plated at 15000 cells/well in a volume of 50 μL in a 384 well poly-D lysine coated plate. Cells were incubated for 24 hours at 37 degrees and 5% CO2. Media was then aspirated using a Tecan Plate-washer and replaced with 20 μL of dye loading buffer: HBSS, 500 uM Brilliant Black (MDS Analytical Technologies), 2 uM Fluo-4. Dye loaded plates were then incubated in the dark at room temperature for 1-1.5 hours. 10 μL of test compound diluted in HBSS (HBSS with 1.5 mM Calcium Chloride, 1.5 mM Magnesium Chloride and 10 mM HEPES. pH 7.4), +0.01% Chaps was added to the plate, incubated for 10 min at room temperature in the dark and then 10 μL of agonist was added at a final concentration equal to the agonist EC80. Calcium release was measured using the FLIPRtetra (MDS Analytical Technologies) or FLIPR384 (MDS Analytical Technologies).
IC50 between 0.1-10 nM (+++), >10-50 nM (++), >50-500 nM (+).

T1 sequence (Q9HBA0 whole entry): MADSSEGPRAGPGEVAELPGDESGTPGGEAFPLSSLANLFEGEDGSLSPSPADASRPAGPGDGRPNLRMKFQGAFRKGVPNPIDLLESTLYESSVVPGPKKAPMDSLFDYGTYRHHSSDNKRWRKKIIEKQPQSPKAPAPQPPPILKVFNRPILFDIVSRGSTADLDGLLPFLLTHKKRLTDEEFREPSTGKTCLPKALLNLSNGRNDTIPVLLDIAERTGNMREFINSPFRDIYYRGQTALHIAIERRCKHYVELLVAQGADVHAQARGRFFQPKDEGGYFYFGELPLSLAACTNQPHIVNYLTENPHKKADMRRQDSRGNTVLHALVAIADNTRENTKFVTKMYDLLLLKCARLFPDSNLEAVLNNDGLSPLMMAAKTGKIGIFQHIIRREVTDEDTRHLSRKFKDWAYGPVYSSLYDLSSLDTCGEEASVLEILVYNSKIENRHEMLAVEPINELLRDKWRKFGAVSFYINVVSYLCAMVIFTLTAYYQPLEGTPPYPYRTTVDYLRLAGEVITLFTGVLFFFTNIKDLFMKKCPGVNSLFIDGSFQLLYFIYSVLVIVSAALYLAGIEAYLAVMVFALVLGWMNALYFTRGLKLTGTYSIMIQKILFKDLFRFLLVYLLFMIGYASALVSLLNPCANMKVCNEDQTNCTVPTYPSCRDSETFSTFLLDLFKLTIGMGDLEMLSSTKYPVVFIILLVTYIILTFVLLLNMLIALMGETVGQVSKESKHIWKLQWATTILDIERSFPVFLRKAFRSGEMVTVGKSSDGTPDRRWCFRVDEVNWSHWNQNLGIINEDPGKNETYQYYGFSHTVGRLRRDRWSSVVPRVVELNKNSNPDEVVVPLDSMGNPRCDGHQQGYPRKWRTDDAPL

Compound	IC50
CCOc1cnc(CN2C[C@@]3(CCC[C@](C)(Cn4cnc5ccc(C#N)cc54)C3)OC2=O)cn1 [Example 155]	0.1 to 10 nM
CC(C)n1cc(CN2C[C@@]3(CCC[C@](C)(Cn4cnc5ccc(C#N)cc54)C3)OC2=O)nn1 [Example 104, 1-[((5S,7S)-7-methyl-3-{[1-(1-methylethyl)-1H-1,2,3-triazol-4-yl]methyl}-2-oxo-1-oxa-3-azaspiro[4.5]dec-7-yl)methyl]-1H-benzimidazole-6-carbonitrile]	50 to 500 nM
Cc1cccc(-n2cc(CN3C[C@@]4(CCC[C@H](Cn5cnc6ccc(C#N)cc65)C4)OC3=O)nn2)c1 [Example 96, 1-[((5S,7S)-3-{[1-(3-methylphenyl)-1H-1,2,3-triazol-4-yl]methyl}-2-oxo-1-oxa-3-azaspiro[4.5]dec-7-yl)methyl]-1H-benzimidazole-6-carbonitrile]	10 to 50 nM
CCc1noc(C(C)(C)CN2C[C@@]3(CCC[C@H](Cn4cnc5ccc(C#N)cc54)C3)OC2=O)n1 [Example 6, 1-({(5S,7S)-3-[2-(3-Ethyl-1,2,4-oxadiazol-5-yl)-2-methylpropyl]-2-oxo-1-oxa-3-azaspiro[4.5]dec-7-yl}methyl)-1H-benzimidazole-6-carbonitrile]	0.1 to 10 nM
N#Cc1ccc2ncn(C[C@H]3CCC[C@]4(C3)CN(Cc3cncc(-c5ccccc5)c3)C(=O)O4)c2c1 [Example 72, 1-({(5S,7S)-2-oxo-3-[(5-phenyl-3-pyridinyl)methyl]-1-oxa-3-azaspiro[4.5]dec-7-yl}methyl)-1H-benzimidazole-6-carbonitrile trifluoroacetate]	50 to 500 nM
CC(C)(C)n1cc(N2C[C@@]3(CCC[C@](C)(Cn4cnc5ccc(C#N)cc54)C3)OC2=O)cn1 [Example 43, 1-(((5S,7S)-3-(1-(tert-butyl)-1H-pyrazol-4-yl)-7-methyl-2-oxo-1-oxa-3-azaspiro[4.5]decan-7-yl)methyl)-1H-benzo[d]imidazole-6-carbonitrile]	10 to 50 nM
CC(C)(C#N)c1ccc(N2C[C@@]3(CCC[C@](C)(Cn4cnc5ccc(C#N)cc54)C3)OC2=O)cn1 [Example 133, 1-(((5S,7S)-3-(6-(2-cyanopropan-2-yl)pyridin-3-yl)-7-methyl-2-oxo-1-oxa-3-azaspiro[4.5]decan-7-yl)methyl]-1H-benzo[d]imidazole-6-carbonitrile]	0.1 to 10 nM
CC(C)(CN1C[C@@]2(CCC[C@H](Cn3cnc4ccc(C#N)cc43)C2)OC1=O)c1nc(C(F)(F)F)no1 [Example 80, 1-[((5S,7S)-3-{2-methyl-2-[3-(trifluoromethyl)-1,2,4-oxadiazol-5-yl]propyl}-2-oxo-1-oxa-3-azaspiro[4.5]dec-7-yl)methyl]-1H-benzimidazole-6-carbonitrile]	0.1 to 10 nM
N#Cc1ccc2ncn(C[C@H]3CCC[C@]4(C3)CN(Cc3cn(-c5cncc(Cl)c5)nn3)C(=O)O4)c2c1 [Example 106, 1-[((5S,7S)-3-{[1-(5-chloro-3-pyridinyl)-1H-1,2,3-triazol-4-yl]methyl}-2-oxo-1-oxa-3-azaspiro[4.5]dec-7-yl)methyl]-1H-benzimidazole-6-carbonitrile]	10 to 50 nM
C[C@]1(Cn2cnc3ccc(C#N)cc32)CCC[C@@]2(CN(c3cc(C4CCC4)no3)C(=O)O2)C1 [Example 40, 1-(((5S,7S)-3-(3-cyclobutylisoxazol-5-yl)-7-methyl-2-oxo-1-oxa-3-azaspiro[4.5]decan-7-yl)methyl)-1H-benzo[d]imidazole-6-carbonitrile]	10 to 50 nM
CCOc1cc(C)c(N2C[C@@]3(CCC[C@](C)(Cn4cnc5ccc(C#N)cc54)C3)OC2=O)nn1 [Example 24, 1-(((5S,7S)-3-(6-Ethoxy-4-methylpyridazin-3-yl)-7-methyl-2-oxo-1-oxa-3-azaspiro[4.5]decan-7-yl)methyl)-1H-benzo[d]imidazole-6-carbonitrile]	0.1 to 10 nM
N#Cc1ccc2ncn(C[C@H]3CCC[C@]4(C3)CN(Cc3sc5ncccc5c3Br)C(=O)O4)c2c1 [Example 153]	0.1 to 10 nM
CC(F)(F)c1cc(N2C[C@@]3(CCC[C@](C)(Cn4cnc5ccc(C#N)cc54)C3)OC2=O)on1 [Example 45, 1-(((5S,7S)-3-(3-(1,1-difluoroethyl)isoxazol-5-yl)-7-methyl-2-oxo-1-oxa-3-azaspiro[4.5]decan-7-yl)methyl)-1H-benzo[d]imidazole-6-carbonitrile]	0.1 to 10 nM
COc1cccnc1N1C[C@@]2(CCC[C@](C)(Cn3cnc4ccc(C#N)cc43)C2)OC1=O [Example 138, 1-({(5S,7S)-7-methyl-3-[3-(methyloxy)-2-pyridinyl]-2-oxo-1-oxa-3-azaspiro[4.5]dec-7-yl}methyl)-1H-benzimidazole-6-carbonitrile]	50 to 500 nM
C[C@]1(Cn2cnc3ccc(C#N)cc32)CCC[C@@]2(CN(c3ncc(C(F)(F)F)cn3)C(=O)O2)C1 [Example 54, 1-(((5S,7S)-7-methyl-2-oxo-3-(5-(trifluoromethyl)pyrimidin-2-yl)-1-oxa-3-azaspiro[4.5]decan-7-yl)methyl)-1H-benzo[d]imidazole-6-carbonitrile]	50 to 500 nM
N#Cc1ccc2ncn(C[C@H]3CCC[C@]4(C3)CN(Cc3csc5ccccc35)C(=O)O4)c2c1 (stereo in doubt) [Example 62, 1-{[3-(1-benzothien-3-ylmethyl)-2-oxo-1-oxa-3-azaspiro[4.5]dec-7-yl]methyl}-1H-benzimidazole-6-carbonitrile]	10 to 50 nM
Cc1nc(C(F)(F)F)ncc1N1C[C@@]2(CCC[C@H](Cn3cnc4ccc(C#N)cc43)C2)OC1=O [Example 124, 1-(((5S,7S)-3-(4-methyl-2-(trifluoromethyl)pyrimidin-5-yl)-2-oxo-1-oxa-3-azaspiro[4.5]decan-7-yl)methyl)-1H-benzo[d]imidazole-6-carbonitrile]	10 to 50 nM
N#Cc1cc(Cl)c2ncn(C[C@H]3CCC[C@]4(C3)CN(CC3(c5nc(-c6ccccc6)no5)CCOCC3)C(=O)O4)c2c1 [Example 84, 4-chloro-1-[((5S,7S)-2-oxo-3-{[4-(3-phenyl-1,2,4-oxadiazol-5-yl)tetrahydro-2H-pyran-4-yl]methyl}-1-oxa-3-azaspiro[4.5]dec-7-yl)methyl]-1H-benzimidazole-6-carbonitrile]	0.1 to 10 nM

Now from value to compound:

IC50	Compound
0.1 to 10 nM	C[C@]1(Cn2cnc3ccc(C#N)cc32)CCC[C@@]2(CN(c3cc(C4CC4)no3)C(=O)O2)C1 [Example 34, 1-{[(5S,7S)-3-(3-cyclopropyl-5-isoxazolyl)-7-methyl-2-oxo-1-oxa-3-azaspiro[4.5]dec-7-yl]methyl}-1H-benzimidazole-6-carbonitrile]
0.1 to 10 nM	Cc1c(C(C)(C)C)noc1N1C[C@@]2(CCC[C@](C)(Cn3cnc4ccc(C#N)cc43)C2)OC1=O [Example 41, 1-(((5S,7S)-3-(3-(tert-butyl)-4-methylisoxazol-5-yl)-7-methyl-2-oxo-1-oxa-3-azaspiro[4.5]decan-7-yl)methyl)-1H-benzo[d]imidazole-6-carbonitrile]
0.1 to 10 nM	N#Cc1ccc2ncn(C[C@H]3CCC[C@]4(C3)CN(Cc3cn(-c5cccc(Cl)c5)nn3)C(=O)O4)c2c1 [Example 90, 1-[((5S,7S)-3-{[1-(3-chlorophenyl)-1H-1,2,3-triazol-4-yl]methyl}-2-oxo-1-oxa-3-azaspiro[4.5]dec-7-yl)methyl]-1H-benzimidazole-6-carbonitrile]
0.1 to 10 nM	COc1ccc(-c2csc(CN3C[C@@]4(CCC[C@H](Cn5cnc6ccc(C#N)cc65)C4)OC3=O)n2)cc1C [Example 70, 1-{[(5S,7S)-3-({4-[3-methyl-4-(methyloxy)phenyl]-1,3-thiazol-2-yl}methyl)-2-oxo-1-oxa-3-azaspiro[4.5]dec-7-yl]methyl}-1H-benzimidazole-6-carbonitrile]
50 to 500 nM	Cc1cnc(N2C[C@@]3(CCC[C@](C)(Cn4cnc5ccc(C#N)cc54)C3)OC2=O)c(C)n1 [Example 130, 1-(((5S,7S)-3-(3,5-dimethylpyrazin-2-yl)-7-methyl-2-oxo-1-oxa-3-azaspiro[4.5]decan-7-yl)methyl)-1H-benzo[d]imidazole-6-carbonitrile]
0.1 to 10 nM	CC(C)(O)c1cnc(N2C[C@@]3(CCC[C@](C)(Cn4cnc5ccc(C#N)cc54)C3)OC2=O)cn1 [Example 147, 1-(((5S,7S)-3-(5-(2-hydroxypropan-2-yl)pyrazin-2-yl)-7-methyl-2-oxo-1-oxa-3-azaspiro[4.5]decan-7-yl)methyl)-1H-benzo[d]imidazole-6-carbonitrile]
10 to 50 nM	CC(C)c1ccc(N2C[C@@]3(CCC[C@H](Cn4cnc5ccc(C#N)cc54)C3)OC2=O)cn1 [Example 142, 1-({(5S,7S)-3-[6-(1-methylethyl)-3-pyridinyl]-2-oxo-1-oxa-3-azaspiro[4.5]dec-7-yl}methyl)-1H-benzimidazole-6-carbonitrile]
0.1 to 10 nM	C[C@]1(Cn2cnc3ccc(C#N)cc32)CCC[C@@]2(CN(Cc3ccc(F)cn3)C(=O)O2)C1 [Example 159, 1-(((5S,7S)-3-((5-fluoropyridin-2-yl)methyl)-7-methyl-2-oxo-1-oxa-3-azaspiro[4.5]decan-7-yl)methyl)-1H-benzo[d]imidazole-6-carbonitrile]
